Tested on: not given
Experiment: not given
Conditions: dosed intranasally, phase I/II study, allergic rhinitis; cited from earlier work

| Molecule | clinical safety | decrease in PGD2 |
| --- | --- | --- |
| Oc1cccc(Nc2ncc(F)c(Nc3cccc(O)c3)n2)c1 [Example R112] | safe across a range of indicators | statistically significant decrease |

Target: recombinant human GST-Syk (Homo sapiens (Human), UniProt P43405)
Experiment: Homogeneous Time-Resolved Fluorescence (HTRF) assay for the recombinant human Syk enzyme
Format: biochemical
Conditions: recombinant human GST-Syk 5 pM, ATP 25 μM, 10-dose titration; read-out: rhSyk (nM) IC50
In short: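 GST-hSyk (5 pM final) preincubated 10 min at room temperature with inhibitor (0.1% DMSO) in 15 mM Tris-HCl pH 7.5, 0.01% Tween 20, 2 mM DTT. Reaction with 250 nM biotinylated peptide, 5 mM Mg, 25 μM ATP for 45 min, room temperature. Quenched with EDTA; Eu-anti-phosphotyrosine/SA-APC HTRF read after 30 min.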

| Molecule | IC50 [nM] |
| --- | --- |
| CC1(C)C[C@@H](C(C)(O)c2ncc(-c3cccc(Nc4cc(C(F)F)ccn4)n3)s2)CC[C@@H]1C(=O)O (stereo partly drawn) [Example 14-50, (1S,4S)-4-{1-[5-(6-{[4-(difluoromethyl)pyridin-2-yl]amino}pyridin-2-yl)-1,3-thiazol-2-yl]-1-hydroxyethyl)-2,2-dimethylcyclohexanecarboxylic acid] | 6 |
| butyl trans-4-[1-hydroxy-1-(5-{6-[(4-methoxypyridin-2-yl)amino]-4-methylpyridin-2-yl}-1,3-thiazol-2-yl)ethyl]cyclohexanecarboxylate [Example 14-2] | 219 |

Same assay, conditions: recombinant human GST-Syk 5 pM, ATP 25 μM; class symbols; read-out: rhSyk activity (IC50)

| Molecule | IC50 [nM] |
| --- | --- |
| Cc1ccnc(Nc2cc(C)cc(-c3cnc(C(C)(O)[C@H]4CC[C@H](C(=O)O)C(C)(C)C4)s3)n2)c1 (stereo partly drawn) [Example 14-34, (1S,4S)-4-[1-hydroxy-1-(5-{4-methyl-6-[(4-methylpyridin-2-yl)amino]pyridin-2-yl}-1,3-thiazol-2-yl)ethyl]-2,2-dimethylcyclohexanecarboxylic acid] | ≤ 100 |
| COc1ccnc(Nc2cc(C)cc(-c3cnc(C(C)(O)[C@H]4CC[C@H](C(=O)O)C(C)(C)C4)s3)n2)c1 (stereo partly drawn) [Example 14-35, (1S,4S)-4-[1-hydroxy-1-(5-{6-[(4-methoxypyridin-2-yl)amino]-4-methylpyridin-2-yl}-1,3-thiazol-2-yl)ethyl]-2,2-dimethylcyclohexanecarboxylic acid] | ≤ 100 |
| COc1ccnc(Nc2cc(C)cc(-c3cnc(C(C)(O)[C@H]4CC[C@H](C(=O)O)C(C)(C)C4)s3)n2)c1 (stereo partly drawn) [Example 14-36, (1S,4S)-4-[1-hydroxy-1-(5-{6-[(4-methoxypyridin-2-yl)amino]-4-methylpyridin-2-yl}-1,3-thiazol-2-yl)ethyl]-2,2-dimethylcyclohexanecarboxylic acid] | ≤ 100 |
| Cc1cc(Nc2cc(C(F)F)ccn2)nc(-c2cnc(C(C)(O)[C@H]3CC[C@H](C(=O)O)C(C)(C)C3)s2)c1 (stereo partly drawn) [Example 14-37, (1S,4S)-4-{1-[5-(6-{[4-(difluoromethyl)pyridin-2-yl]amino}-4-methylpyridin-2-yl)-1,3-thiazol-2-yl]-1-hydroxyethyl}-2,2-dimethylcyclohexanecarboxylic acid] | ≤ 100 |
| Cc1cc(Nc2cc(C(F)F)ccn2)nc(-c2cnc(C(C)(O)[C@H]3CC[C@H](C(=O)O)C(C)(C)C3)s2)c1 (stereo partly drawn) [Example 14-38, (1S,4S)-4-{1-[5-(6-{[4-(difluoromethyl)pyridin-2-yl]amino}-4-methylpyridin-2-yl)-1,3-thiazol-2-yl]-1-hydroxyethyl}-2,2-dimethylcyclohexanecarboxylic acid] | ≤ 100 |
| CC1(C)C[C@@H](C(C)(O)c2ncc(-c3cccc(Nc4cc(C(F)(F)F)ccn4)n3)s2)CC[C@@H]1C(=O)O (stereo partly drawn) [Example 14-44, (1S,4S)-4-{1-hydroxy-1-[5-(6-{[4-(trifluoromethyl)pyridin-2-yl]amino}pyridin-2-yl)-1,3-thiazol-2-yl]ethyl}-2,2-dimethylcyclohexanecarboxylic acid] | ≤ 100 |
| CC1(C)C[C@@H](C(C)(O)c2ncc(-c3cccc(Nc4cc(C(F)(F)F)ccn4)n3)s2)CC[C@@H]1C(=O)O (stereo partly drawn) [Example 14-45, (1S,4S)-4-{1-hydroxy-1-[5-(6-{[4-(trifluoromethyl)pyridin-2-yl]amino}pyridin-2-yl)-1,3-thiazol-2-yl]ethyl}-2,2-dimethylcyclohexanecarboxylic acid] | ≤ 100 |
| Cc1ccnc(Nc2cccc(-c3cnc(C(C)(O)[C@H]4CC[C@H](C(=O)O)C(C)(C)C4)s3)n2)c1 (stereo partly drawn) [Example 14-46, (1S,4S)-4-[1-hydroxy-1-(5-{6-[(4-methylpyridin-2-yl)amino]pyridin-2-yl}-1,3-thiazol-2-yl)ethyl]-2,2-dimethylcyclohexanecarboxylic acid] | ≤ 100 |
| Cc1ccnc(Nc2cccc(-c3cnc(C(C)(O)[C@H]4CC[C@H](C(=O)O)C(C)(C)C4)s3)n2)c1 (stereo partly drawn) [Example 14-47, (1S,4S)-4-[1-hydroxy-1-(5-{6-[(4-methylpyridin-2-yl)amino]pyridin-2-yl}-1,3-thiazol-2-yl)ethyl]-2,2-dimethylcyclohexanecarboxylic acid] | ≤ 100 |
| COc1ccnc(Nc2cccc(-c3cnc(C(C)(O)[C@H]4CC[C@H](C(=O)O)C(C)(C)C4)s3)n2)c1 (stereo partly drawn) [Example 14-48, (1S,4S)-4-[1-hydroxy-1-(5-{6-[(4-methoxypyridin-2-yl)amino]pyridin-2-yl}-1,3-thiazol-2-yl)ethyl]-2,2-dimethylcyclohexanecarboxylic acid] | ≤ 100 |
| COc1ccnc(Nc2cccc(-c3cnc(C(C)(O)[C@H]4CC[C@H](C(=O)O)C(C)(C)C4)s3)n2)c1 (stereo partly drawn) [Example 14-49, (1S,4S)-4-[1-hydroxy-1-(5-{6-[(4-methoxypyridin-2-yl)amino]pyridin-2-yl}-1,3-thiazol-2-yl)ethyl]-2,2-dimethylcyclohexanecarboxylic acid] | ≤ 100 |
| CC1(C)C[C@@H](C(C)(O)c2ncc(-c3cccc(Nc4cc(C(F)F)ccn4)n3)s2)CC[C@@H]1C(=O)O (stereo partly drawn) [Example 14-50, (1S,4S)-4-{1-[5-(6-{[4-(difluoromethyl)pyridin-2-yl]amino}pyridin-2-yl)-1,3-thiazol-2-yl]-1-hydroxyethyl)-2,2-dimethylcyclohexanecarboxylic acid] | ≤ 100 |
| Cc1cc(Nc2cc(C(F)(F)F)ccn2)nc(-c2cnc([C@@](C)(O)[C@H]3CNC(=O)C3)s2)c1 [Example 14-55, (4R)-4-{(1S)-1-hydroxy-1-[5-(4-methyl-6-{[4-(trifluoromethyl)pyridin-2-yl]amino}pyridin-2-yl)-1,3-thiazol-2-yl]ethyl}pyrrolidin-2-one] | ≤ 100 |
| Cc1cc(Nc2cc(C(F)(F)F)ccn2)nc(-c2cnc([C@](C)(O)[C@H]3CNC(=O)C3)s2)c1 [Example 14-56, (4R)-4-{(1R)-1-hydroxy-1-[5-(4-methyl-6-{[4-(trifluoromethyl)pyridin-2-yl]amino}pyridin-2-yl)-1,3-thiazol-2-yl]ethyl}pyrrolidin-2-one] | ≤ 100 |
| Cc1cc(Nc2cc(C(F)(F)F)ccn2)nc(-c2cnc(C(C)(O)C3CCC(C(=O)O)C(C)C3)s2)c1 (stereo not drawn) [Example 15-14, 4-{1-hydroxy-1-[5-(4-methyl-6-{[4-(trifluoromethyl)pyridin-2-yl]amino}pyridin-2-yl)-1,3-thiazol-2-yl]ethyl}-2-methylcyclohexanecarboxylic acid] | ≤ 100 |
| Cc1cc(Nc2cc(C(F)(F)F)ccn2)nc(-c2cnc(C(C)(O)C3CCC(C(=O)O)C(C)C3)s2)c1 (stereo not drawn) [Example 15-15, 4-{1-hydroxy-1-[5-(4-methyl-6-{[4-(trifluoromethyl)pyridin-2-yl]amino}pyridin-2-yl)-1,3-thiazol-2-yl]ethyl}-2-methylcyclohexanecarboxylic acid] | ≤ 100 |
| Cc1cc(Nc2cc(C(F)(F)F)ccn2)nc(-c2cnc(C(C)(O)C3CCC(C(=O)O)C(C)C3)s2)c1 (stereo not drawn) [Example 15-16, 4-{1-hydroxy-1-[5-(4-methyl-6-{[4-(trifluoromethyl)pyridin-2-yl]amino}pyridin-2-yl)-1,3-thiazol-2-yl]ethyl}-2-methylcyclohexanecarboxylic acid] | ≤ 100 |
| Cc1cc(Nc2cc(C(F)(F)F)ccn2)nc(-c2cnc(C(C)(O)C3CCC(C(=O)O)C(C)C3)s2)c1 (stereo not drawn) [Example 15-17, 4-{1-hydroxy-1-[5-(4-methyl-6-{[4-(trifluoromethyl)pyridin-2-yl]amino}pyridin-2-yl)-1,3-thiazol-2-yl]ethyl}-2-methylcyclohexanecarboxylic acid] | ≤ 100 |
| butyl trans-4-[1-hydroxy-1-(5-{6-[(4-methoxypyridin-2-yl)amino]-4-methylpyridin-2-yl}-1,3-thiazol-2-yl)ethyl]cyclohexanecarboxylate [Example 14-2] | 100 to 1000 |

Tested on: not given
Experiment: not given
Conditions: phase II clinical trial, allergic rhinitis; cited from earlier work

| Molecule | efficacy versus placebo |
| --- | --- |
| Oc1cccc(Nc2ncc(F)c(Nc3cccc(O)c3)n2)c1 [Example R112] | lack of efficacy versus placebo |

Reference: patent publication US9120785B2, “Pyridyl aminopyridines as Syk inhibitors” (Merck Sharp & Dohme Corp., priority 2011, dated 2015)
